Assay results as given in a melting point compilation (Tetko et al.).

First: O=C(O)c1ccc(S(=O)(=O)NCC2CCCO2)cc1 (configuration not stated)
Second: CC(=O)NCc1ccc(C(=O)N2CCCC2C(=O)O)cc1 (configuration not stated)
The melting point of the first is lower: 169 to 171 °C for the first, 196 to 198 °C for the second.

First: CCCCCC(C)CNC(=S)NN (configuration not stated)
Second: CC(C)CCOc1ccc(C(=O)NN)cc1
The melting point of the first is lower: 48 to 50 °C for the first, 108 to 110 °C for the second.

First: Nc1cccc(-n2ccnc2)c1
Second: CN(C1CCCCC1)S(=O)(=O)c1cccc(N)c1
The melting point of the first is higher: 112 to 114 °C for the first, 109 to 111 °C for the second.

First: CC1(C)CC(=O)CC(C)(C)N1C(=O)CCl
Second: N#CCNC(=O)CN1CCC(=O)CC1
The melting point of the first is lower: 67 to 69 °C for the first, 124 to 126 °C for the second.

Compared with `O=C(O)Cn1c(-c2ccccc2)cc2ccccc21`, `NCC(O)c1cccc(OCc2ccccc2)c1` (configuration not stated) is lower in melting point: 145 to 147 °C for the first, 107 to 109 °C for the second.

First: COc1cc(C=O)ccc1[N+](=O)[O-]
Second: CCOc1cc(/C=N/O)ccc1O
The melting point of the first is lower: 89 to 91 °C for the first, 104 to 106 °C for the second.

Compared with `CN1CCC(=O)Nc2cc(F)ccc21`, `CC1=CC=CC(=C2Nc3cc(F)ccc3N2C2CC2)C1=N` is higher in melting point: 143 to 145 °C for the first, 149 to 151 °C for the second.

First: O=C(O)c1ccc(F)c(S(=O)(=O)N2CCCCC2)c1
Second: NCc1cccc(S(=O)(=O)N2CCCCC2)c1
The melting point of the first is higher: 203 to 205 °C for the first, 67 to 69 °C for the second.

First: O=C(O)C(=Cc1ccc(Cl)cc1)c1ccc(F)cc1
Second: O=C(CCSc1ccccn1)c1ccc(F)cc1
The melting point of the first is higher: 204 to 206 °C for the first, 60 to 62 °C for the second.

First: O=C(O)CS(=O)(=O)CC(=O)Nc1ccc(Br)cc1
Second: CC(C)(NC(=O)NCc1cccc(Br)c1)C(=O)O
The melting point of the first is higher: 207 to 209 °C for the first, 159 to 161 °C for the second.

First: O=C(c1cccnc1)c1c(F)cc(F)cc1F
Second: COC(=O)c1cc2ccc(F)cc2s1
The melting point of the first is lower: 38 to 40 °C for the first, 88 to 90 °C for the second.

First: CC(C)(C)c1nccc(N)n1
Second: CC(C)(C)n1nc[nH]c1=O
The melting point of the first is lower: 64 to 66 °C for the first, 219 to 221 °C for the second.

First: NC1CCN(C2CCOCC2)C1=O (configuration not stated)
Second: NC(=S)C1CCCCC1
The melting point of the first is lower: 50 to 52 °C for the first, 115 to 117 °C for the second.

First: CNC(CO)c1ccc(OC)cc1 (configuration not stated)
Second: COCCOc1ccc(C(N)=S)cc1
The melting point of the first is lower: 57 to 59 °C for the first, 141 to 143 °C for the second.

Compared with `COc1cc(NC(=O)CCCl)cc(OC)c1OC`, `CC(=O)Nc1nc(CCl)cs1` is higher in melting point: 117 to 119 °C for the first, 159 to 161 °C for the second.

First: N#CSc1ccc(N)cc1
Second: Nc1ccc(C(=O)NCCO)cc1
The melting point of the first is lower: 43 to 56 °C for the first, 115 to 117 °C for the second.

First: CC(=O)N1CCN(c2ccc(C(=O)O)cc2[N+](=O)[O-])CC1
Second: CC(=O)N1CCN(c2ccccc2C=O)CC1
The melting point of the first is higher: 262 to 264 °C for the first, 86 to 88 °C for the second.

First: CC(=O)c1c(C)[nH]c(N=Nc2cccc(C(=O)O)c2)c1C
Second: COCCc1nnc(-c2cccc(C(=O)O)c2)o1
The melting point of the first is higher: 203 to 205 °C for the first, 156 to 158 °C for the second.

First: Clc1ccc(-c2cc(CBr)on2)cc1
Second: N#Cc1cc(CBr)ccc1F
The melting point of the first is higher: 116 to 118 °C for the first, 44 to 46 °C for the second.

First: N#CCC(=O)c1cccc2c1OCCO2
Second: N#CC(C(=O)CCl)=C1Nc2ccccc2N1
The melting point of the first is lower: 99 to 101 °C for the first, 285 to 287 °C for the second.

Compared with `O=S1(=O)CC(S(=O)(=O)Cl)c2ccccc21` (configuration not stated), `S=c1cc[nH]c2ccccc12` is higher in melting point: 144 to 146 °C for the first, 159 to 161 °C for the second.

Compared with `CCC(CC)CS(N)(=O)=O`, `CCOC(=O)c1cccnc1SCC(=O)O` is higher in melting point: 33 to 35 °C for the first, 109 to 111 °C for the second.

Compared with `COc1ccc2c(c1)C(=O)CCC2`, `CN1C(=O)CCC(C(=O)O)C1c1cccc(Cl)c1` (configuration not stated) is higher in melting point: 55 to 59 °C for the first, 182 to 184 °C for the second.

First: Cc1c(C(=O)O)cnn1-c1ccccc1Cl
Second: CNc1cc(C(=O)O)c2ccccc2n1
The melting point of the first is lower: 149 to 151 °C for the first, 346 to 348 °C for the second.

First: FC(F)(F)c1n[nH]c2ccncc12
Second: NNC(=O)NCc1cccc(C(F)(F)F)c1
The melting point of the first is higher: 227 to 229 °C for the first, 86 to 88 °C for the second.

First: CCOC(=O)/C(C#N)=C\Nc1cc(F)cc(F)c1
Second: Cc1ccc(N=C=O)c(C#N)c1
The melting point of the first is higher: 174 to 176 °C for the first, 52 to 54 °C for the second.

First: CC(Oc1cccc(Br)c1)C(=O)NN (configuration not stated)
Second: O=C(O)C1CCCN(C(=O)c2ccncc2)C1 (configuration not stated)
The melting point of the first is lower: 113 to 115 °C for the first, 258 to 260 °C for the second.

First: Nc1nnc(-c2cc3c(s2)CCCC3)o1
Second: Nc1cc(C2CC2)no1
The melting point of the first is higher: 266 to 268 °C for the first, 52 to 54 °C for the second.

Work on `Cn1c(=O)c2c(ncn2CCCC(=O)O)n(C)c1=O` yielded a melting point of 167 to 169 °C.
